Assay results from US10752593B2, “Compounds for use as therapeutically active substances in the treatment of retinal diseases” (ENDOGENA THERAPEUTICS, INC., priority 2018, dated 2020).

Tested on: retinal precursor cells
Assay: Sphere passaging and high-throughput drug screening: proliferation of retinal precursor cells within one week
Type: cell-based, mammalian
Conditions: for increase of cell proliferation within one week: increase over control, retinal precursor cells; for Cell proliferation within one week [%]: retinal precursor cells grown one week with compound in 0.1% DMSO, control without compound = 100
Experimental: Kynurenic Acid (0.2 mg/mL), trypsin (1.33 mg/mL), and hyaluronidase (0.67 mg/mL) were weighed out and dissolved in high magnesium/low calcium artificial cerebral spinal fluid (aCSF) at 37° C. Fibroblast growth factor 2 (FGF2; 10 ng/mL) and heparin (2 μg/mL) were added to 100 mL of serum-free media (SFM). Ovomucoid trypsin inhibitor (1 mg/mL) was dissolved in warm SFM and sterile filtered ([…]).
A dissecting microscope, cold light source, and sterile surgical instruments were set up inside of a sterile biological safety cabinet (BSC). Mammalian eyes were enucleated and placed in a petri dish containing cold, sterile aCSF. Under the dissecting microscope, hair, connective tissue, and the dorsal and ventral oblique muscles were cleared from the scleral/corneal border with two sets of forceps. Next, curved or angled micro-dissecting scissors were used to cleave any remaining extraocular muscle tissue, the optic nerve, and cut the eyeball into symmetrical halves; beginning and finishing the cut from the hole left by the optic nerve. Using two sets of forceps to grasp the cornea, the two eye halves were peeled apart. The lens, optic nerve, and vitreous were separated from the eye shells and the eye shells were transferred into a new petri dish (also containing cold, sterile aCSF). To isolate the ciliary epithelium (CE), eye shells were oriented with the cornea on the right and retinal pigmented epithelium (RPE) on the left. A pair of straight forceps were used to pin down the eye shell on the RPE side while a scalpel blade was inserted between the CE and the iris, using pressure to slice the iris/cornea side off from the rest of the shell. Next, the scalpel was run along the border between the CE and the RPE to obtain the CE isolated as a thin strip of tissue. The CE strips were then transferred to a 35 mm dish containing 2 mL of dispase solution (Sigma; T1005) and incubated for 10 minutes at 37° C. Next, the strips were transferred from dispase into a 35 mm dish containing 2 mL of sterile filtered kynurenic acid, trypsin and hyaluronidase solution and incubated at 37° C. for 10 minutes. After incubation, the dish was returned to the dissecting scope, and the CE strips were pinned down with straight, non-serrated forceps, while non-serrated curved forceps were used to scrape the CE off from the underlying sclera. The bare scleral strips were then discarded, such that only the CE cells remained in the enzyme solution. Using a fire-polished, cotton-plugged glass pipette, the cells and enzyme solution were transferred to a 15 mL tube and triturated approximately 45 times to break apart the tissue. The 15 mL tube/cell suspension was centrifuged for 5 minutes at 1500 rpm. The supernatant was gently aspirated from the resulting pellet using a fire-polished, cotton-plugged glass pipette and 2 mL of trypsin inhibitor solution was added to the pellet. Using a small borehole, fire-polished, cotton-plugged glass pipette, the sample was triturated approximately 45 times until it was a single-cell suspension. The 15 mL tube/cell suspension was centrifuged for 5 minutes at 1500 rpm. The supernatant was gently aspirated from the resulting pellet and 1-2 mL of SFM with FGF2 and heparin (plating media) was added. The cells and media were mixed to ensure a uniform cell suspension and a 10 uL sample was taken and cell density was determined. The cells were then seeded and cultured at 10c/μL in culture-treated plates or flasks. After one week, roughly 1 in 500 cells proliferated to form free-floating, clonal spheres greater than 80 μm in diameter.
Human-derived spheres were passaged using the kynurenic acid, trypsin, hyaluronidase enzyme solution with the addition of collagenase I (0.5 mg/mL), collagenase II (0.5 mg/mL) and elastase (0.1 mg/mL). Mouse-derived spheres were passaged using hyaluronidase (0.67 mg/mL), collagenase I (0.5 mg/mL), and collagenase II (0.5 mg/mL) dissolved in Accustase solution (Sigma; SCR005). […]

[1] = results table after the methods

Structure (SMILES) | increase of cell proliferation within one week [%] | Cell proliferation within one week [%] [1] [%] | Cell proliferation within one week [%] (concentration not given)
COc1cc(NC(=O)Cc2ccccc2Cl)ccc1-c1ccncc1 [Compound E0027, 2-(2-chlorophenyl)-N-(3-methoxy-4-(pyridin-4-yl)phenyl)acetamide] | 48 | 148 | 
COc1cccc(CC(=O)Nc2ccc(-c3cnco3)c(Cl)c2)c1 [Compound E0146, N-(3-chloro-4-(oxazol-5-yl)phenyl)-2-(3-methoxyphenyl)acetamide] | 103 | 203 | 203
O=C(Cc1ccccc1C(F)(F)F)Nc1ccc(-c2cnco2)c(Cl)c1 [Compound E0147, N-(3-chloro-4-(oxazol-5-yl)phenyl)-2-(2-(trifluoromethyl)phenyl)acetamide] | 42 | 142 | 142
O=C(Cc1cccc(Br)c1)Nc1ccc(-c2cnco2)c(Cl)c1 [Compound E0148, 2-(3-bromophenyl)-N-(3-chloro-4-(oxazol-5-yl)phenyl)acetamide] | 43 | 143 | 143
O=C(Cc1ccc(F)cc1F)Nc1ccc(-c2cnco2)c(Cl)c1 [Compound E0149, N-(3-chloro-4-(oxazol-5-yl)phenyl)-2-(2,4-difluorophenyl)acetamide] | 57 | 157 | 157
O=C(Cc1cc(F)ccc1Cl)Nc1ccc(-c2cnco2)c(Cl)c1 [Compound E1017, N-(3-chloro-4-(oxazol-5-yl)phenyl)-2-(2-chloro-5-fluorophenyl)acetamide] |  | 121 | 121
O=C(Cc1cccc(C(F)(F)F)c1)Nc1ccc(-c2cnco2)c(Cl)c1 [Compound E1018, N-(3-chloro-4-(oxazol-5-yl)phenyl)-2-(3-(trifluoromethyl)phenyl)acetamide] |  | 134 | 134
O=C(Cc1ccc(Cl)cc1)Nc1ccc(-c2cnco2)c(Cl)c1 [Compound E1019, N-(3-chloro-4-(oxazol-5-yl)phenyl)-2-(4-chlorophenyl)acetamide] |  | 133 | 133
O=C(Cc1ccccc1OC(F)F)Nc1ccc(-c2cnco2)c(Cl)c1 [Compound E1020, N-(3-chloro-4-(oxazol-5-yl)phenyl)-2-(2-(difluoromethoxy)phenyl)acetamide] |  | 135 | 135
O=C(Cc1ccccc1)Nc1ccc(-c2cnco2)c(Cl)c1 [Compound E1021, N-(3-chloro-4-(oxazol-5-yl)phenyl)-2-phenylacetamide] | 49 | 149 | 149
O=C(Cc1ccccc1Cl)Nc1ccc(-c2cnco2)c(Cl)c1 [Compound E1022, N-(3-chloro-4-(oxazol-5-yl)phenyl)-2-(2-chlorophenyl)acetamide] | 58 | 158 | 158
COc1ccccc1CC(=O)Nc1ccc(-c2cnco2)c(Cl)c1 [Compound E1024, N-(3-chloro-4-(oxazol-5-yl)phenyl)-2-(2-methoxyphenyl)acetamide] |  | 128 | 128
COc1ccccc1CC(=O)Nc1ccc(-c2cnco2)c(F)c1 [Compound E1025, N-(3-fluoro-4-(oxazol-5-yl)phenyl)-2-(2-methoxyphenyl)acetamide] |  | 106 | 106
O=C(Cc1cccc(OC(F)F)c1)Nc1ccc(-c2cnco2)c(Cl)c1 [Compound E1026, N-(3-chloro-4-(oxazol-5-yl)phenyl)-2-(3-(difluoromethoxy)phenyl)acetamide] |  | 122 | 122
